According to patent US20240277658A1, “NLRP3 ACTIVATORS FOR USE IN THE TREATMENT OF INFECTIOUS DISEASES OR CANCER BY ACTIVATING NLRP3 INFLAMMASOME” (ALBERT-LUDWIGS-UNIVERSITÄT FREIBURG, priority 2020, published 2024):
Several values for one entry are separate records, joined by “and”; a condition that tells them apart may be missing. Equal values may be shown once. Read-outs that look alike come from different tables or passages of the source.

How the values were obtained:
BMDCs = experiment: LDH release (lytic cell death, pyroptosis) from LPS-primed BMDCs; assay type: cell-based, mouse; details: compound 50 μM; for Average (% positive control): LDH release, positive control nigericin 5 μM; for cytotoxicity at 50 µM: Mus musculus, BMDC, LPS-primed BMDCs
How it was run: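 LDH released into medium, detected colorimetrically, served as the pyroptosis read-out in triplicate. LPS-primed (50 ng ml^−1, 3 h) murine bone marrow-derived dendritic cells received test compounds, typically 50 μM, or nigericin (5 μM), R837 or CL097 (100 μM) for 3 hours.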

NLRP3 inflammasome = molecular target: T1, NLRP3 inflammasome (Mus musculus, UniProt Q8R4B8); experiment: IL-1β release from LPS-primed BMDCs (ELISA) as readout of NLRP3 inflammasome activation; assay type: cell-based; details: compound 50 μM; for Average (% positive control): IL-1β release, positive control nigericin 5 μM; for Average IL-1β / IL-1β: LPS-primed BMDCs; for IL-1β: single replicates
T1 construct: endogenous in cells; host or cells: primary mouse bone marrow-derived dendritic cells (BMDCs), LPS-primed
How it was run: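 NLRP3 inflammasome activation was read out as IL-1β released into the supernatant, measured by ELISA. Murine BMDCs were primed with LPS (50 ng ml^−1, 3 hours), then incubated with compounds for 3 hours, with each condition run in three technical replicates. Nigericin at 5 μM acted as the positive control activator, and IL-1β release was also expressed as a percentage of that control.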

[1] = read-out: Average LDH release (% of max.)
[2] = single replicates, read-out: LDH release (% of max.)

T1 sequence (Q8R4B8 whole entry): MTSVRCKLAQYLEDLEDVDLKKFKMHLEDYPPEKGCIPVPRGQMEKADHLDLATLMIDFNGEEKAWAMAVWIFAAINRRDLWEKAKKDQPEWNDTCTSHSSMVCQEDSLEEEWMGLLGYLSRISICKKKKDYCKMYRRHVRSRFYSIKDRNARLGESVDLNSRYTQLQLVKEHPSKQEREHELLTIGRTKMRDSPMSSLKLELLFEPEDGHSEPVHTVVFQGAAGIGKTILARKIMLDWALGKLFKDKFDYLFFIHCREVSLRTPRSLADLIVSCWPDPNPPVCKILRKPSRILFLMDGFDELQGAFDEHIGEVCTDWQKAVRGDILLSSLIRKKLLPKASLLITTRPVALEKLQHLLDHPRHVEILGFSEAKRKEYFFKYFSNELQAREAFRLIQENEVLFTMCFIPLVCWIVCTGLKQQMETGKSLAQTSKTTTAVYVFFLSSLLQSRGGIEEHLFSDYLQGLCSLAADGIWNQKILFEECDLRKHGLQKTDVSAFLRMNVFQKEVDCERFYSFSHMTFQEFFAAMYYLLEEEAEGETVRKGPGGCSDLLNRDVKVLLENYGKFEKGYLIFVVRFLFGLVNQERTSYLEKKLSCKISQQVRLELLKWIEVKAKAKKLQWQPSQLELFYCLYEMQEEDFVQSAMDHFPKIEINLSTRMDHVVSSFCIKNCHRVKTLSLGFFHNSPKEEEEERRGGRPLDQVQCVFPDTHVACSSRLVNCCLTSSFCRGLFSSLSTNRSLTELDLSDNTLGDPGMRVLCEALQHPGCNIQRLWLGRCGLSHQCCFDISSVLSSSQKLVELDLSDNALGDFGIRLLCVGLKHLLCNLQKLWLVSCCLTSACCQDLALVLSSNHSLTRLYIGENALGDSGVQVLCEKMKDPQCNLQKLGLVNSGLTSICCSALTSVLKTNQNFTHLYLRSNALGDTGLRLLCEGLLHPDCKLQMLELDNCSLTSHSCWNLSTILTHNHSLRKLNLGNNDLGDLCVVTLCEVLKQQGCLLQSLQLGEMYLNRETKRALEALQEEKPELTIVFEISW

Row | SMILES | Average (% positive control) (NLRP3 inflammasome) | Average IL-1β (NLRP3 inflammasome) [ng/mL] | Average (% positive control) (BMDCs) | cytotoxicity at 50 µM (BMDCs; [1]) [%] | cytotoxicity at 50 µM (BMDCs; [2]) [%] | IL-1β (NLRP3 inflammasome)
1 | Cc1ccc(N2C(=O)C(=O)N(Cc3nc(-c4ccsc4)no3)C2=O)cc1 [L01.071, 1-(4-methylphenyl)-3-{[3-(thiophen-3-yl)-1,2,4-oxadiazol-5-yl]-methyl}imidazolidine-2,4,5-trione] | 1.598 | 0.115 | 11.833 | 8.66 | 9.01 | 0.116 ng/mL and 0.097 ng/mL and 0.131 ng/mL
2 | O=C(NCc1nc(C2CC2)no1)Nc1cccc(F)c1 [L01.081, 3-[(3-cyclopropyl-1,2,4-oxadiazol-5-yl)methyl]-1-(3-fluorophenyl)urea] | 1.093 | 0.078 | 8.656 | 6.33 | 6.87 | 0.075 ng/mL and 0.072 ng/mL and 0.088 ng/mL
3 | CC(C)Oc1ccccc1NC(=O)NCc1nc(C2CC2)no1 [L01.083, 3-[(3-cyclopropyl-1,2,4-oxadiazol-5-yl)-methyl]-1-[2-(propan-2-yloxy)phenyl]urea] | 1.180 | 0.085 | 8.649 | 6.33 | 6.8 | 0.080 ng/mL and 0.077 ng/mL and 0.097 ng/mL
4 | O=C(NCc1nc(-c2cccs2)no1)Nc1ccccc1 [L01.087, 1-phenyl-3-{[3-(thio-phen-2-yl)-1,2,4-oxadiazol-5-yl]meth-yl}urea] | 3.589 | 0.257 | 9.562 | 7 | 6.79 | 0.237 ng/mL and 0.239 ng/mL and 0.296 ng/mL
5 | Cc1ccc(NC(=O)NCc2nc(Cc3ccccc3)no2)cc1 [L01.088, 3-[(3-benzyl-1,2,4-oxadiazol-5-yl)methyl]-1-(4-methylphenyl)urea] | 0.866 | 0.062 | 7.174 | 5.25 | 5.68 | 0.069 ng/mL and 0.058 ng/mL and 0.059 ng/mL
6 | O=C1CN(c2ccccc2)C(=O)N1Cc1nc(-c2cccs2)no1 [L01.089, 1-phenyl-3-{[3-(thio-phen-2-yl)-1,2,4-oxadiazol-5-yl]meth-yl}imidazolidine-2,4-dione] | 4.526 | 0.324 | 10.402 | 7.61 | 8.67 | 0.313 ng/mL and 0.316 ng/mL and 0.344 ng/mL
7 | O=C(Nc1cccc(Cl)c1)N1CCOCC1c1nc(-c2cccs2)no1 (stereo not drawn) [L01.090, N-(3-chlorophenyl)-3-[3-(thiophen-2-yl)-1,2,4-oxadiazol-5-yl]morph-oline-4-carboxamide] | 1.044 | 0.075 | 20.610 | 15.1 | 15.3 | 0.079 ng/mL and 0.077 ng/mL and 0.069 ng/mL
8 | O=C(Nc1ccccc1)Nc1ccc(NC(=O)c2ccoc2)cc1 [L01.092, N-{4-[(phenylcarbamo-yl)amino]phenyl}furan-3-carboxamide] | 15.066 | 1.080 | 20.483 | 15 | 16.4 | 1.253 ng/mL and 1.060 ng/mL and 0.927 ng/mL
9 | CC(C)CC(NC(=O)Nc1cccc(N2CCC(C)CC2)c1)c1nc(-c2nnc[nH]2)no1 (stereo not drawn) [L01.093, 3-{3-methyl-1-[3-(4H-1,2,4-triazol-3-yl)-1,2,4-oxadiazol-5-yl]butyl}-1-[3-(4-methylpiperidin-1-yl)phenyl]urea] | 0.998 | 0.072 | 11.139 | 8.15 | 6.68 | 0.056 ng/mL and 0.050 ng/mL and 0.108 ng/mL
10 | CC(C)C(NC(=O)Nc1ccc(Cl)cc1)c1nc(-c2ccccc2)no1 (stereo not drawn) [L01.097, 1-(4-chlorophenyl)-3-[2-methyl-1-(3-phenyl-1,2,4-oxadiazol-5-yl)-propyl]urea] | 1.765 | 0.126 | 51.271 | 37.5 | 39.5 | 0.121 ng/mL and 0.143 ng/mL and 0.116 ng/mL
11 | O=C(Nc1cccc(S(=O)(=O)C2CCCC2)c1)N1CCCCC1c1nc(-c2ccccc2)no1 (stereo not drawn) [L01.099, N-[3-(cyclopentane-sulfonyl)phenyl]-2-(3-phenyl-1,2,4-oxadiazol-5-yl)piperidine-1-carboxamide] | 0.932 | 0.067 | 13.410 | 9.81 | 10.6 | 0.074 ng/mL and 0.067 ng/mL and 0.059 ng/mL
12 | O=C(Nc1ccccc1)Nc1ccc(NC(=O)C2CCOC2)cc1 (stereo not drawn) [L01.101, N-{4-[(phenylcarbamo-yl)amino]phenyl}oxo-lane-3-carboxamide] | 15.216 | 1.091 | 27.161 | 19.9 | 19.4 | 1.160 ng/mL and 1.071 ng/mL and 1.041 ng/mL
13 | O=C(Nc1ccccc1)Nc1ccc(NC(=O)C2CCCC2)cc1 [L01.104, N-{4-[(phenylcarbamo-yl)amino]phenyl}cyclo-pentanecarboxamide] | 16.230 | 1.163 | 24.873 | 18.2 | 17.2 | 1.103 ng/mL and 1.142 ng/mL and 1.246 ng/mL
14 | CC1Oc2ccc(NC(=O)Nc3ccccc3)cc2NC1=O (stereo not drawn) [L01.110, 3-(2-methyl-3-oxo-3,4-dihydro-2H-1,4-benzox-azin-6-yl)-1-phenylurea] | 36.599 | 2.624 | 46.015 | 33.7 | 34.8 | 2.505 ng/mL and 2.943 ng/mL and 2.423 ng/mL

Continued, in another order:

Row | Average (% positive control) (NLRP3 inflammasome) | Average IL-1β (NLRP3 inflammasome) [ng/mL] | SMILES | Average (% positive control) (BMDCs) | cytotoxicity at 50 µM (BMDCs; [1]) [%] | cytotoxicity at 50 µM (BMDCs; [2]) [%] | IL-1β (NLRP3 inflammasome)
15 | 1.368 | 0.098 | Cc1cccc(NC(=O)Nc2ccccc2)c1 [L01.077, 3-(3-methylphenyl)-1-phenylurea] | 7.980 | 5.84 | 5.28 | 0.067 ng/mL and 0.165 ng/mL and 0.062 ng/mL
16 | 1.362 | 0.098 | O=C(Nc1ccccc1)Nc1cccc(NC(=O)C2CC2)c1 [L01.084, N-{3-[(phenylcarbamo-yl)amino]phenyl}cyclo-propanecarboxamide] | 8.054 | 5.89 | 6 | 0.083 ng/mL and 0.111 ng/mL and 0.099 ng/mL
17 | 1.703 | 0.122 | CC(=NO)c1ccc(NC(=O)Nc2ccccc2)cc1 [L01.095, 3-{4-[1-(hydroxyimino)-ethyl]phenyl}-1-phenyl-urea] | 7.959 | 5.82 | 5.21 | 0.137 ng/mL and 0.128 ng/mL and 0.102 ng/mL
18 | 1.624 | 0.116 | O=C(Nc1ccccc1)Nc1cccc(NC(=O)C2CCCC2)c1 [L01.103, N-{3-[(phenylcarbamo-yl)amino]phenyl}cyclo-pentanecarboxamide] | 10.791 | 7.89 | 6.58 | 0.060 ng/mL and 0.049 ng/mL and 0.240 ng/mL
19 | 0.973 | 0.070 | O=C(Nc1ccccc1)Nc1cccc([N+](=O)[O-])c1 [L01.108, 3-(3-nitrophenyl)-1-phenylurea] | 14.362 | 10.5 | 10.9 | 0.076 ng/mL and 0.061 ng/mL and 0.072 ng/mL
20 | 1.269 | 0.091 | CC(=O)Nc1ccc(NC(=O)Nc2ccccc2)cc1 [L01.109, N-{4-[(phenylcarbamo-yl)amino]phenyl}acet-amide] | 10.912 | 7.98 | 8.46 | 0.120 ng/mL and 0.083 ng/mL and 0.070 ng/mL
